Key:
Assay type in all cases: in vivo
[1] = test system: barnyardgrass (Echinochloa crus-galli); test: Test B flooded paddy test, visual plant response rating; conditions: 250 g ai/ha, Flood, applied to paddy water, 2-leaf stage, evaluated after 13 to 15 days
How it was run: (§1)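 2-leaf plants; pots flooded 3 cm over soil surface; compound dosed straight into the floodwater; depth kept constant; greenhouse 13–15 d; visual rating vs. untreated controls.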

[2] = test system: ducksalad (Heteranhera limosa); test: as above; conditions: 250 g ai/ha, Flood, applied to paddy water, 2-leaf stage, evaluated after 13 to 15 days
How it was run: as §1

[3] = test system: sedge, umbrella (small-flower umbrella sedge, Cyperus difformis); test: as above; conditions: 250 g ai/ha, Flood, applied to paddy water, 2-leaf stage, evaluated after 13 to 15 days
How it was run: as §1

[4] = test system: rice (Oryza sativa); test: as above; conditions: 250 g ai/ha, Flood, applied to paddy water, 2-leaf stage, evaluated after 13 to 15 days
How it was run: as §1

[5] = test system: blackgrass (Alopecurus myosuroides); test: Test A postemergence, visual plant response rating; conditions: for Blackgrass plant response rating (0 to 100 scale): 500 g ai/ha, postemergence, 0 is no effect, 100 is complete control; for Blackgrass plant response rating: Postemergence, 125 g ai/ha, 0 to 100 scale (0 no effect, 100 complete control)
How it was run: (§2)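 Preemergence: seeds in loam/sand blend given directed soil spray of compound in non-phytotoxic solvent with surfactant. Postemergence: plants 2–10 cm, one- to two-leaf stage, sprayed with same formulation. Visual injury rated vs untreated controls after ~10 days in greenhouse, 0 (no effect) to 100 (complete control).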

[6] = test system: barnyardgrass (Echinochloa crus-galli); test: Test A postemergence, visual plant response rating; conditions: for Barnyardgrass plant response rating (0 to 100 scale): 500 g ai/ha, postemergence, 0 is no effect, 100 is complete control; for Barnyardgrass plant response rating: Postemergence, 125 g ai/ha, 0 to 100 scale (0 no effect, 100 complete control)
How it was run: as §2

[7] = test system: kochia (Kochia scoparia); test: Test A postemergence, visual plant response rating; conditions: for Kochia plant response rating (0 to 100 scale): 500 g ai/ha, postemergence, 0 is no effect, 100 is complete control; for Kochia plant response rating: Postemergence, 125 g ai/ha, 0 to 100 scale (0 no effect, 100 complete control)
How it was run: as §2

[8] = test system: Italian ryegrass (Lolium multiflorum); test: Test A postemergence, visual plant response rating; conditions: for Ryegrass, Italian plant response rating (0 to 100 scale): 500 g ai/ha, postemergence, 0 is no effect, 100 is complete control; for Ryegrass, Italian plant response rating: Postemergence, 125 g ai/ha, 0 to 100 scale (0 no effect, 100 complete control)
How it was run: as §2

[9] = test system: corn (Zea mays); test: Test A postemergence, visual plant response rating; conditions: for Corn plant response rating (0 to 100 scale): 500 g ai/ha, postemergence, 0 is no effect, 100 is complete control; for Corn plant response rating: Postemergence, 125 g ai/ha, 0 to 100 scale (0 no effect, 100 complete control)
How it was run: as §2

[10] = test system: foxtail, giant (giant foxtail, Setaria faberii); test: Test A postemergence, visual plant response rating; conditions: for Foxtail, Giant plant response rating (0 to 100 scale): 500 g ai/ha, postemergence, 0 is no effect, 100 is complete control; for Foxtail, Giant plant response rating: Postemergence, 125 g ai/ha, 0 to 100 scale (0 no effect, 100 complete control)
How it was run: as §2

[11] = test system: pigweed (Amaranthus retroflexus); test: Test A postemergence, visual plant response rating; conditions: for Pigweed plant response rating (0 to 100 scale): 500 g ai/ha, postemergence, 0 is no effect, 100 is complete control; for Pigweed plant response rating: Postemergence, 125 g ai/ha, 0 to 100 scale (0 no effect, 100 complete control)
How it was run: as §2

[12] = test system: wheat (Triticum aestivum); test: Test A postemergence, visual plant response rating; conditions: for Wheat plant response rating (0 to 100 scale): 500 g ai/ha, postemergence, 0 is no effect, 100 is complete control; for Wheat plant response rating: Postemergence, 125 g ai/ha, 0 to 100 scale (0 no effect, 100 complete control)
How it was run: as §2

[13] = test system: galium (catchweed bedstraw, Galium aparine); test: Test A postemergence, visual plant response rating; conditions: for Galium plant response rating (0 to 100 scale): 500 g ai/ha, postemergence, 0 is no effect, 100 is complete control; for Galium plant response rating: Postemergence, 125 g ai/ha, 0 to 100 scale (0 no effect, 100 complete control)
How it was run: as §2

[14] = test system: ragweed (common ragweed, Ambrosia elatior); test: Test A postemergence, visual plant response rating; conditions: for Ragweed plant response rating (0 to 100 scale): 500 g ai/ha, postemergence, 0 is no effect, 100 is complete control; for Ragweed plant response rating: Postemergence, 125 g ai/ha, 0 to 100 scale (0 no effect, 100 complete control)
How it was run: as §2

[15] = test system: barnyardgrass (Echinochloa crus-galli); test: Test A preemergence, visual plant response rating; conditions: for Barnyardgrass plant response rating: 125 g ai/ha, preemergence, 0 to 100 scale, 0 no effect, 100 complete control; for Barnyardgrass plant response rating (0 to 100 scale): 500 g ai/ha Preemergence, approx. 10 days
How it was run: as §2

[16] = test system: kochia (Kochia scoparia); test: Test A preemergence, visual plant response rating; conditions: for Kochia plant response rating: 125 g ai/ha, preemergence, 0 to 100 scale, 0 no effect, 100 complete control; for Kochia plant response rating (0 to 100 scale): 500 g ai/ha Preemergence, approx. 10 days
How it was run: as §2

[17] = test system: Italian ryegrass (Lolium multiflorum); test: Test A preemergence, visual plant response rating; conditions: for Ryegrass, Italian plant response rating: 125 g ai/ha, preemergence, 0 to 100 scale, 0 no effect, 100 complete control; for Ryegrass, Italian plant response rating (0 to 100 scale): 500 g ai/ha Preemergence, approx. 10 days
How it was run: as §2

[18] = test system: foxtail, giant (giant foxtail, Setaria faberii); test: Test A preemergence, visual plant response rating; conditions: for Foxtail, Giant plant response rating: 125 g ai/ha, preemergence, 0 to 100 scale, 0 no effect, 100 complete control; for Foxtail, Giant plant response rating (0 to 100 scale): 500 g ai/ha Preemergence, approx. 10 days
How it was run: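 Formulated in a non-phytotoxic solvent mixture including surfactant, each test chemical was sprayed onto the soil surface after sowing, or onto seedlings 2 to 10 cm high. Roughly 10 days later, plants were compared with untreated controls and rated for injury from 0 (no effect) to 100 (complete control).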

[19] = test system: pigweed (Amaranthus retroflexus); test: Test A preemergence, visual plant response rating; conditions: for Pigweed plant response rating: 125 g ai/ha, preemergence, 0 to 100 scale, 0 no effect, 100 complete control; for Pigweed plant response rating (0 to 100 scale): 500 g ai/ha Preemergence, approx. 10 days
How it was run: as §2

[20] = test system: ragweed (common ragweed, Ambrosia elatior); test: Test A preemergence, visual plant response rating; conditions: for Ragweed plant response rating: 125 g ai/ha, preemergence, 0 to 100 scale, 0 no effect, 100 complete control; for Ragweed plant response rating (0 to 100 scale): 500 g ai/ha Preemergence, approx. 10 days
How it was run: as §2

Structure (SMILES)	Plant response rating, Barnyardgrass (0 to 100 scale, 0 is no effect, 100 is complete control) [1]	Plant response rating, Ducksalad (0 to 100 scale, 0 is no effect, 100 is complete control) [2]	Plant response rating, Sedge, Umbrella (0 to 100 scale, 0 is no effect, 100 is complete control) [3]	Plant response rating, Rice (0 to 100 scale, 0 is no effect, 100 is complete control) [4]	Blackgrass plant response rating (0 to 100 scale) [5]	Blackgrass plant response rating [5]	Barnyardgrass plant response rating (0 to 100 scale) [6]	Barnyardgrass plant response rating [6]	Kochia plant response rating (0 to 100 scale) [7]	Kochia plant response rating [7]	Ryegrass, Italian plant response rating (0 to 100 scale) [8]	Ryegrass, Italian plant response rating [8]	Corn plant response rating (0 to 100 scale) [9]	Corn plant response rating [9]	Foxtail, Giant plant response rating (0 to 100 scale) [10]	Foxtail, Giant plant response rating [10]	Pigweed plant response rating (0 to 100 scale) [11]	Pigweed plant response rating [11]	Wheat plant response rating (0 to 100 scale) [12]	Wheat plant response rating [12]	also measured
C#CCO/N=C(\c1c(O)c(C)nn(C)c1=O)c1cccc2ccccc12 [Compound 83, 5-hydroxy-2,6-dimethyl-4-[(Z)-[(2-propyn-1-yloxy)imino]-1-naphthalenylmethyl]-3(2H)-pyridazinone]	0	75	70	0	100	90	80	60	90	80	100	90	40	20	80	70	90	80	60	40	Galium plant response rating (0 to 100 scale) [13]: 100; Galium plant response rating [13]: 90; Ragweed plant response rating (0 to 100 scale) [14]: 100; Ragweed plant response rating [14]: 90; Barnyardgrass plant response rating [15]: 80; Barnyardgrass plant response rating (0 to 100 scale) [15]: 100; Kochia plant response rating [16]: 20; Kochia plant response rating (0 to 100 scale) [16]: 100; Ryegrass, Italian plant response rating [17]: 80; Ryegrass, Italian plant response rating (0 to 100 scale) [17]: 100; Foxtail, Giant plant response rating [18]: 90; Foxtail, Giant plant response rating (0 to 100 scale) [18]: 100; Pigweed plant response rating [19]: 100; Pigweed plant response rating (0 to 100 scale) [19]: 100; Ragweed plant response rating [20]: 100; Ragweed plant response rating (0 to 100 scale) [20]: 100
CON=C(c1cccc(C(F)(F)F)c1Cl)c1c(O)c(C)nn(C)c1=O [Compound 102]	0	0	0	0	30	0	30	20	20	20	30	0	0	0	30	10	40	20	30	0	Galium plant response rating (0 to 100 scale) [13]: 70; Galium plant response rating [13]: 40; Ragweed plant response rating (0 to 100 scale) [14]: 30; Ragweed plant response rating [14]: 10; Barnyardgrass plant response rating [15]: 0; Barnyardgrass plant response rating (0 to 100 scale) [15]: 40; Kochia plant response rating [16]: 0; Kochia plant response rating (0 to 100 scale) [16]: 0; Ryegrass, Italian plant response rating [17]: 20; Ryegrass, Italian plant response rating (0 to 100 scale) [17]: 50; Foxtail, Giant plant response rating [18]: 0; Foxtail, Giant plant response rating (0 to 100 scale) [18]: 30; Pigweed plant response rating [19]: 0; Pigweed plant response rating (0 to 100 scale) [19]: 10; Ragweed plant response rating [20]: 20; Ragweed plant response rating (0 to 100 scale) [20]: 40
CON=C(c1c(O)c(C)nn(C)c1=O)c1ccc(Cl)c2ccccc12 [Compound 130]	0	0	35	0	70	50	30	30	70	50	90	30	30	10	70	30	80	70	40	10	Galium plant response rating (0 to 100 scale) [13]: 90; Galium plant response rating [13]: 80; Ragweed plant response rating (0 to 100 scale) [14]: 80; Ragweed plant response rating [14]: 60; Barnyardgrass plant response rating [15]: 0; Barnyardgrass plant response rating (0 to 100 scale) [15]: 70; Kochia plant response rating [16]: 0; Kochia plant response rating (0 to 100 scale) [16]: 0; Ryegrass, Italian plant response rating [17]: 30; Ryegrass, Italian plant response rating (0 to 100 scale) [17]: 50; Foxtail, Giant plant response rating [18]: 30; Foxtail, Giant plant response rating (0 to 100 scale) [18]: 60; Pigweed plant response rating [19]: 50; Pigweed plant response rating (0 to 100 scale) [19]: 50; Ragweed plant response rating [20]: 20; Ragweed plant response rating (0 to 100 scale) [20]: 50

Reference: US20210045385A1, “PYRIDAZINONE-SUBSTITUTED KETOXIMES AS HERBICIDES” (FMC Corporation, priority 2018, published 2021)
